How the values were obtained:
NL63 S protein = NL63 S protein (Human coronavirus NL63, UniProt Q6Q1S2); assay: cell-based; design: species or system HCoV-NL63
229E S protein = 229E S protein (Human coronavirus 229E, UniProt P15423); assay: cell-based; design: species or system HCoV-229E
[1] = tested on: S proteins of multiple HCoVs; assay type: cell-based
pseudotyped OC43 = details: 48 h
pseudotyped 229E = details: 48 h
OC43 = details: read-out: IC50, live OC43 infection; HCT-8 cells, 100 TCID50, day 5
pseudotyped NL63 = details: 48 h
NL63 = details: read-out: IC50, live NL63 infection; LLC-MK2 cells
OC43 S protein = OC43 S protein (Human coronavirus OC43, UniProt P36334); assay: cell-based; details: Inhibitory activity of peptides, IC50, HCoV-OC43 cell-cell fusion assay
Sequence of OC43 S protein (P36334 14-1336 limits assumed): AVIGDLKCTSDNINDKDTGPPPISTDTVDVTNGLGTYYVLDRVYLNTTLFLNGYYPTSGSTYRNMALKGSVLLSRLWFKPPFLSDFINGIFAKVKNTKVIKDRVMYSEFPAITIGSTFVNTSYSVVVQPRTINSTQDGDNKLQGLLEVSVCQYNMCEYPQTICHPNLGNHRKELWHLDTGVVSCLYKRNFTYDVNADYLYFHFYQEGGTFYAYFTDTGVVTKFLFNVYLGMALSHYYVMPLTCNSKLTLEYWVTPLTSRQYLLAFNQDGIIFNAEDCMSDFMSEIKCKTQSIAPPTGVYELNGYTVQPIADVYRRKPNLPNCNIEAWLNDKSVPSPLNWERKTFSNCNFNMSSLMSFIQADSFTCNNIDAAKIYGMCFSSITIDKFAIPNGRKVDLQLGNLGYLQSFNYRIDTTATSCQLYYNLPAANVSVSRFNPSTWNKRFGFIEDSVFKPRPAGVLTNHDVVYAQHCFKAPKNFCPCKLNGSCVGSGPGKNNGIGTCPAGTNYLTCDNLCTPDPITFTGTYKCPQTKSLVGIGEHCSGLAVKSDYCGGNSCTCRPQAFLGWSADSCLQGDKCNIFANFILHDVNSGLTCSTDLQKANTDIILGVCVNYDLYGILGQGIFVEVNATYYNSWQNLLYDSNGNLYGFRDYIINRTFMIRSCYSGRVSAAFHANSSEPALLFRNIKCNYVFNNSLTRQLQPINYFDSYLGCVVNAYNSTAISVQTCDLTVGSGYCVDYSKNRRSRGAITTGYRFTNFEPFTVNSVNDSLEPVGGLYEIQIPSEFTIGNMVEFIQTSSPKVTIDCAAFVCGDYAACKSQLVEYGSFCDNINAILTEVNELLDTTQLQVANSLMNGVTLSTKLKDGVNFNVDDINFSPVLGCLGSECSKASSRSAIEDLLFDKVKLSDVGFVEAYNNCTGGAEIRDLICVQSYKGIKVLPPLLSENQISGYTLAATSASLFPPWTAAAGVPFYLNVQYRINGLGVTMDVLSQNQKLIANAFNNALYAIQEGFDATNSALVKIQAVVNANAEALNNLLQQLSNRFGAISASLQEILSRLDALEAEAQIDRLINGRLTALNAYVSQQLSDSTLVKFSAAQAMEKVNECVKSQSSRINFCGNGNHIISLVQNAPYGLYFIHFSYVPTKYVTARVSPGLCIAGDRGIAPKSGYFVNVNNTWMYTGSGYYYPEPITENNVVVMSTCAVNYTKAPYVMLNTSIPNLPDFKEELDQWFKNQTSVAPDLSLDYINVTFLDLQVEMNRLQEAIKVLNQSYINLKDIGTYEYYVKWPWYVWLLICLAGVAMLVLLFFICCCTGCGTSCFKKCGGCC

[2] = target: HR1 domain of MERS-CoV S protein (residues 984 to 1062) (MERS-CoV) (UniProt K9N5Q8)
Sequence of HR1 domain of MERS-CoV S protein (residues 984 to 1062) (MERS-CoV) (K9N5Q8 984-1062): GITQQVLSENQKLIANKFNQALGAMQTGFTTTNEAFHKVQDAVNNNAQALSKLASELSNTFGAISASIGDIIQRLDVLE

[3] = target: HR1 domain of HCoV-229E S protein (residues 785 to 873) (HCoV-229E) (UniProt P15423)
Sequence of HR1 domain of HCoV-229E S protein (residues 785 to 873) (HCoV-229E) (P15423 785-873): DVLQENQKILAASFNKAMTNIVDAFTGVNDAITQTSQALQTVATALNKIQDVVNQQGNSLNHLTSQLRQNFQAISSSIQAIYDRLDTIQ

[4] = target: HR1 domain of SARS-CoV S protein (residues 892 to 970) (SARS-CoV) (UniProt P59594)
[5] = high or low dose, before and 1, 3, 5 days after final treatment, P > 0.05

Sequence of NL63 S protein (Q6Q1S2 19-1338 limits assumed): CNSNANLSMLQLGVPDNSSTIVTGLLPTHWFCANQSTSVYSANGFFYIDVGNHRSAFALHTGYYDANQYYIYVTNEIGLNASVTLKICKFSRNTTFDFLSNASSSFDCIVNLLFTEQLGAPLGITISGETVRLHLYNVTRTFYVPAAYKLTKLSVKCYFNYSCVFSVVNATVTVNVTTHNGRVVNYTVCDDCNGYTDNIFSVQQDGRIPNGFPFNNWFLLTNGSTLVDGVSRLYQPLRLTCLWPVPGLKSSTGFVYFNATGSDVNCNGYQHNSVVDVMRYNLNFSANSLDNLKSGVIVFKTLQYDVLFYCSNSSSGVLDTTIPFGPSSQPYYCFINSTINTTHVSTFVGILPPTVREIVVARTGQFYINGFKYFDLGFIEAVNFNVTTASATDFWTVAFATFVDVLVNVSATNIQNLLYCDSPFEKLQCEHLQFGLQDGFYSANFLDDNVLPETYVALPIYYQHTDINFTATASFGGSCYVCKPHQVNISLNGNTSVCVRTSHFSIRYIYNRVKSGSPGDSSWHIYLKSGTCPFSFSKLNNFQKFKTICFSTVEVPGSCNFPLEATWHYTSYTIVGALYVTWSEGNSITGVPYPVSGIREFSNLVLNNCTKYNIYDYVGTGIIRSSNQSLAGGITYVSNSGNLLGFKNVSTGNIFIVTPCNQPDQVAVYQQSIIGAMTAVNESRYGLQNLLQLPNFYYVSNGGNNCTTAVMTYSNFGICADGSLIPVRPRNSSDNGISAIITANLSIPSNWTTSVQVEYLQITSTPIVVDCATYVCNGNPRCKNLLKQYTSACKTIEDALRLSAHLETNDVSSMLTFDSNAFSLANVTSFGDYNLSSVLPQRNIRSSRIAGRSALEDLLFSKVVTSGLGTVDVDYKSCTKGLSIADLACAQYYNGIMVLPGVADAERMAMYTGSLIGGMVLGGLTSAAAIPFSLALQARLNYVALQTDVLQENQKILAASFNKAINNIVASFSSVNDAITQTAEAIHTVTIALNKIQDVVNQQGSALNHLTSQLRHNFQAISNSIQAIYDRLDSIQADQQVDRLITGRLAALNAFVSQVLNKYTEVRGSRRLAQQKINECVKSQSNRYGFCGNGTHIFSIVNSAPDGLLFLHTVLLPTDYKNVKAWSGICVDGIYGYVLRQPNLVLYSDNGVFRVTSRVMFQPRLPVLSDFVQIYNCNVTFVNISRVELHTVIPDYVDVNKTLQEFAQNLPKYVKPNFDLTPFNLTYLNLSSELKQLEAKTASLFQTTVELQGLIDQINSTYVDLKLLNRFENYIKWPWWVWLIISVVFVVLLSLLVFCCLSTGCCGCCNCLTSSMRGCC
Sequence of 229E S protein (P15423 16-1173 limits assumed): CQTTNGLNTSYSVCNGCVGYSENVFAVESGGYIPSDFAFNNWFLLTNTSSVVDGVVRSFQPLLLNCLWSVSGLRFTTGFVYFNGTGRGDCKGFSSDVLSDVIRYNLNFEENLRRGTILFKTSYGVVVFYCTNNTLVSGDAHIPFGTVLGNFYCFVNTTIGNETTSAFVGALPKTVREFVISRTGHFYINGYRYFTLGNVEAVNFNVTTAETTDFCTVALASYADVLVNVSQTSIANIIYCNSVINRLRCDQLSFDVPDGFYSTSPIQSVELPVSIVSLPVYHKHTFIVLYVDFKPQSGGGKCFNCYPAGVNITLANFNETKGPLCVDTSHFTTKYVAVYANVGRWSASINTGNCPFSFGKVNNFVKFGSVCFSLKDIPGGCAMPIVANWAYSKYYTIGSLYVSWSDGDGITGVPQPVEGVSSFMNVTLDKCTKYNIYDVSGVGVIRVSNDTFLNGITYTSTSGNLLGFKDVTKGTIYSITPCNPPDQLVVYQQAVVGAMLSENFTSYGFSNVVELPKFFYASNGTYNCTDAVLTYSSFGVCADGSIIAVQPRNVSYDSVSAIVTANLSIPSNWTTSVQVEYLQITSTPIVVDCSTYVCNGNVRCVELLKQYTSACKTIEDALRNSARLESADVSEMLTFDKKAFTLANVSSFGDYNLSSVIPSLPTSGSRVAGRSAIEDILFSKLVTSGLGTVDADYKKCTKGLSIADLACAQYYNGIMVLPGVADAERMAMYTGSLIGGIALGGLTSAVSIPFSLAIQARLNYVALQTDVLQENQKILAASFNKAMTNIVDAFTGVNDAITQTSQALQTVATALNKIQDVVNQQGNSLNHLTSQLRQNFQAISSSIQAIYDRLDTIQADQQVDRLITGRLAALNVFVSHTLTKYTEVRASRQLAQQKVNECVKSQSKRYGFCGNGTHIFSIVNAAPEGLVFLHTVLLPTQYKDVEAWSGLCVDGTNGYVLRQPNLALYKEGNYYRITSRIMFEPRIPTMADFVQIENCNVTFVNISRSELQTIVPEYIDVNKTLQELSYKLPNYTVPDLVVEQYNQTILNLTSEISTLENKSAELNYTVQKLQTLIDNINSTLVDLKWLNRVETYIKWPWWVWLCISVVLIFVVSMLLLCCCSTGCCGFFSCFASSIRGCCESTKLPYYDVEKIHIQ

CC[C@H](C)[C@H](NC(=O)[C@H](C)NC(=O)[C@H](CC(=O)O)NC(=O)[C@H](CC(N)=O)NC(=O)[C@@H](NC(=O)CNC(=O)[C@@H](NC(=O)[C@H](Cc1ccccc1)NC(=O)[C@H](C)NC(=O)[C@H](CC(=O)O)NC(=O)[C@@H](NC(=O)[C@@H](NC(=O)[C@H](CC(N)=O)NC(=O)[C@@H](NC(=O)[C@H](CCSC)NC(=O)[C@H](C)NC(=O)[C@H](CCCCN)NC(=O)[C@H](CC(N)=O)NC(=O)[C@H](Cc1ccccc1)NC(=O)[C@H](CO)NC(=O)[C@H](C)NC(=O)[C@H](C)N)[C@@H](C)O)[C@@H](C)CC)C(C)C)[C@@H](C)O)C(C)C)C(=O)N[C@H](C(=O)N[C@@H](CCC(N)=O)C(=O)N[C@H](C(=O)N[C@@H](CO)C(=O)N[C@@H](CCC(N)=O)C(=O)N[C@@H](C)C(=O)N[C@@H](CC(C)C)C(=O)N[C@@H](CCC(N)=O)C(=O)N[C@H](C(=O)N[C@H](C(=O)N[C@@H](C)C(=O)N[C@H](C(=O)N[C@@H](C)C(=O)N[C@@H](CC(C)C)C(=O)N[C@@H](CC(N)=O)C(=O)N[C@@H](CCCCN)C(=O)N[C@H](C(=O)N[C@@H](CCC(N)=O)C(=O)N[C@@H](CC(=O)O)C(=O)N[C@H](C(=O)N[C@H](C(=O)N[C@@H](CC(N)=O)C(=O)N[C@@H](CCC(N)=O)C(=O)N[C@@H](CCC(N)=O)C(=O)NCC(=O)N[C@@H](CC(N)=O)C(=O)N[C@@H](CO)C(=O)N[C@@H](CC(C)C)C(=O)N[C@@H](CC(N)=O)C(=O)N[C@@H](Cc1c[nH]cn1)C(=O)N[C@@H](CC(C)C)C(=O)N[C@H](C(=O)N[C@@H](CO)C(=O)N[C@@H](CCC(N)=O)C(=O)O)[C@@H](C)O)C(C)C)C(C)C)[C@@H](C)CC)[C@@H](C)O)C(C)C)[C@@H](C)O)[C@@H](C)O)[C@@H](C)O [229E-HR1P]
Inhibitory effects on NL63-S-mediated cell-cell fusion (NL63 S protein): moderate inhibitory effects
Inhibitory effects on 229E-S-mediated cell-cell fusion (229E S protein): moderate inhibitory effects

CC[C@H](C)[C@H](NC(=O)[C@H](CC(N)=O)NC(=O)[C@H](CC(=O)O)NC(=O)[C@@H](NC(=O)[C@H](CC(C)C)NC(=O)[C@@H](NC(=O)[C@H](CCC(N)=O)NC(=O)[C@H](CC(C)C)NC(=O)[C@H](CCCCN)NC(=O)[C@H](CCC(N)=O)NC(=O)[C@@H](NC(=O)[C@@H](NC(=O)[C@H](Cc1ccc(O)cc1)NC(=O)[C@H](CC(N)=O)NC(=O)[C@H](CC(C)C)NC(=O)[C@H](CCC(=O)O)NC(=O)[C@H](C)NC(=O)[C@H](CO)NC(=O)[C@H](CCCCN)NC(=O)[C@H](CC(N)=O)NC(=O)[C@H](CCC(=O)O)NC(=O)[C@H](CC(C)C)NC(=O)[C@@H](NC(=O)[C@H](CO)NC(=O)[C@@H](NC(=O)[C@H](CCC(=O)O)NC(=O)[C@H](CO)NC(=O)[C@@H](NC(=O)[C@H](CC(C)C)NC(=O)[C@H](CC(N)=O)NC(=O)[C@H](CC(C)C)NC(=O)[C@@H](NC(=O)[C@@H](NC(=O)[C@H](CCC(N)=O)NC(=O)[C@H](CC(N)=O)NC(=O)[C@H](Cc1ccc(O)cc1)NC(=O)[C@H](CCC(N)=O)NC(=O)[C@H](CCC(=O)O)NC(=O)[C@@H](NC(=O)[C@@H](N)C(C)C)C(C)C)[C@@H](C)O)[C@@H](C)CC)[C@@H](C)O)[C@@H](C)CC)[C@@H](C)O)[C@@H](C)O)C(C)C)[C@@H](C)O)[C@@H](C)CC)C(=O)N[C@@H](CC(N)=O)C(=O)N[C@@H](CO)C(=O)N[C@H](C(=O)N[C@@H](CC(C)C)C(=O)N[C@H](C(=O)N[C@@H](CC(=O)O)C(=O)N[C@@H](CC(C)C)C(=O)N[C@@H](CCCCN)C(=O)N[C@@H](Cc1c[nH]c2ccccc12)C(=O)N[C@@H](CC(C)C)C(=O)O)C(C)C)[C@@H](C)O [229E-HR2P]
Inhibitory activity against β-HCoVs (MERS-CoV, SARS-CoV, OC43) S-mediated fusion [1]: no effective inhibitory activity
IC50 (229E): 560 nM

CC[C@H](C)[C@H](NC(=O)[C@H](C)NC(=O)[C@H](CCC(=O)O)NC(=O)[C@H](CCC(=O)O)NC(=O)[C@H](CC(C)C)NC(=O)[C@H](CCCCN)NC(=O)[C@H](CCCCN)NC(=O)[C@H](CCSC)NC(=O)[C@H](CCC(=O)O)NC(=O)[C@H](Cc1ccc(O)cc1)NC(=O)[C@H](CCC(=O)O)NC(=O)[C@H](CC(C)C)NC(=O)[C@H](CC(=O)O)NC(=O)[C@H](CC(C)C)NC(=O)[C@H](Cc1ccccc1)NC(=O)[C@@H](NC(=O)[C@@H](NC(=O)[C@H](CC(N)=O)NC(=O)[C@@H](NC(=O)[C@H](CCC(N)=O)NC(=O)[C@H](CC(=O)O)NC(=O)[C@H](CC(C)C)NC(=O)[C@@H](N)CO)[C@@H](C)CC)C(C)C)[C@@H](C)O)C(=O)N[C@@H](CCCCN)C(=O)N[C@@H](CCCCN)C(=O)N[C@@H](CC(C)C)C(=O)N[C@@H](CCC(=O)O)C(=O)N[C@@H](CCC(=O)O)C(=O)N[C@@H](CO)C(=O)N[C@@H](Cc1ccc(O)cc1)C(=O)N[C@H](C(=O)N[C@@H](CC(=O)O)C(=O)N[C@@H](CC(C)C)C(=O)N[C@@H](CCCCN)C(=O)N[C@@H](CCC(=O)O)C(=O)N[C@@H](CC(C)C)C(=O)O)[C@@H](C)CC [EK1]
EK1-specific antibodies in sera (ELISA) (2 weeks after intranasal administration): No EK1-specific antibodies were detected
weight gain/loss compared to PBS-treated mice (20 or 100 mg/kg intranasal every day for 1 week, followed 2 weeks): no apparent difference
histopathology of lung, liver, kidney, and spleen sections (hematoxylin and eosin, 4 weeks after administration): no pathological abnormality
alanine aminotransferase (ALT) in sera versus PBS-treated group [5]: no significant difference
creatinine in sera versus PBS-treated group [5]: no significant difference
IC50 (pseudotyped OC43): 1810 nM
IC50 (pseudotyped 229E): 3.35 µM
IC50 (229E): 690 nM
IC50 (OC43): 620 nM
IC50 (pseudotyped NL63): 6.02 µM
IC50 (NL63): 480 nM

CC[C@H](C)[C@H](NC(=O)[C@H](CC(C)C)NC(=O)CNC(=O)[C@H](CCC(N)=O)NC(=O)[C@H](CC(C)C)NC(=O)[C@H](CCC(=O)O)NC(=O)[C@@H](NC(=O)[C@@H](NC(=O)[C@@H](NC(=O)[C@H](CCC(N)=O)NC(=O)[C@H](Cc1ccccc1)NC(=O)[C@H](CC(C)C)NC(=O)[C@H](CO)NC(=O)[C@H](C)NC(=O)[C@@H](NC(=O)[C@H](CCCCN)NC(=O)[C@H](C)NC(=O)[C@H](CCC(=O)O)NC(=O)[C@H](CC(C)C)NC(=O)[C@H](CCC(N)=O)NC(=O)[C@H](CCCCN)NC(=O)[C@H](CC(C)C)NC(=O)[C@H](CCC(=O)O)NC(=O)[C@H](CO)NC(=O)[C@H](CO)NC(=O)[C@H](CC(C)C)NC(=O)[C@H](CC(N)=O)NC(=O)[C@H](CC(C)C)NC(=O)[C@H](Cc1ccc(O)cc1)NC(=O)[C@@H](NC(=O)[C@H](CC(C)C)NC(=O)[C@H](CC(N)=O)NC(=O)[C@H](Cc1ccccc1)NC(=O)[C@@H]1CCCN1C(=O)[C@@H](NC(=O)[C@H](CC(C)C)NC(=O)[C@@H](N)CC(=O)O)[C@@H](C)O)[C@@H](C)O)[C@@H](C)O)[C@@H](C)O)[C@@H](C)O)C(C)C)C(=O)N[C@@H](CC(=O)O)C(=O)N[C@@H](CCC(N)=O)C(=O)N[C@H](C(=O)N[C@@H](CC(N)=O)C(=O)N[C@@H](CO)C(=O)N[C@H](C(=O)N[C@@H](Cc1ccc(O)cc1)C(=O)N[C@H](C(=O)N[C@@H](CC(=O)O)C(=O)N[C@@H](CC(C)C)C(=O)N[C@@H](CCCCN)C(=O)N[C@@H](CC(C)C)C(=O)N[C@@H](CC(C)C)C(=O)O)C(C)C)[C@@H](C)O)[C@@H](C)CC [NL63-HR2P]
Inhibitory activity against β-HCoVs (MERS-CoV, SARS-CoV, OC43) S-mediated fusion [1]: no effective inhibitory activity

CC[C@H](C)[C@H](NC(=O)[C@H](CC(=O)O)NC(=O)[C@H](CCCCN)NC(=O)[C@H](CC(C)C)NC(=O)[C@H](CC(N)=O)NC(=O)[C@@H](NC(=O)[C@H](Cc1ccc(O)cc1)NC(=O)[C@H](CO)NC(=O)[C@H](CCC(N)=O)NC(=O)[C@H](CC(N)=O)NC(=O)[C@H](CC(C)C)NC(=O)[C@@H](NC(=O)[C@H](CCCCN)NC(=O)[C@@H](NC(=O)[C@H](C)NC(=O)[C@H](CCC(=O)O)NC(=O)[C@H](CCC(N)=O)NC(=O)[C@H](CC(C)C)NC(=O)[C@H](CCCNC(=N)N)NC(=O)[C@H](CC(N)=O)NC(=O)[C@H](CCSC)NC(=O)[C@H](CCC(=O)O)NC(=O)[C@H](CC(=O)O)NC(=O)[C@H](CCC(N)=O)NC(=O)[C@H](CC(C)C)NC(=O)[C@H](CC(=O)O)NC(=O)[C@H](CC(C)C)NC(=O)[C@H](Cc1ccccc1)NC(=O)[C@@H](NC(=O)[C@@H](NC(=O)[C@H](CC(N)=O)NC(=O)[C@@H](NC(=O)[C@H](Cc1ccc(O)cc1)NC(=O)[C@H](CC(=O)O)NC(=O)[C@H](CC(C)C)NC(=O)[C@@H](N)CO)[C@@H](C)CC)C(C)C)[C@@H](C)O)[C@@H](C)CC)C(C)C)[C@@H](C)CC)C(=O)O [OC43-HR2P]
IC50 (NL63 S protein; Inhibitory activity of peptides, IC50, HCoV-NL63 cell-cell fusion assay): 940 nM
IC50 (229E S protein; Inhibitory activity of peptides, IC50, HCoV-229E cell-cell fusion assay): 840 nM
IC50 (OC43 S protein): 660 nM
IC50 (OC43): 930 nM

OC43-HR2P (peptide)
IC50 of inhibition of MERS-CoV S-mediated cell-cell fusion [2]: 0.39 µM
IC50 of inhibition of 229E S-mediated cell-cell fusion [3]: 0.84 µM
IC50 of inhibition of SARS-CoV S-mediated cell-cell fusion [4]: 0.54 µM
